The text below walks through data of patent US20190282518A1 (Bryn Pharma, LLC, priority 2018, published 2019).

The test system of the experiment is histamine induced nasal congestion. Particulars: 5% histamine aerosol, dogs.

On to `NCCc1c[nH]cn1` [Histamine], for which the “induction of nasal congestion” value is “induced congestion in all animals to varying degrees”.
